Results on 15 molecules are retold here after patent publication US6994868B2, “Compositions useful as inhibitors of ERK” (Vertex Pharmaceuticals Incorporated, priority 2000, dated 2006).

The term Ki denotes a dissociation constant, usually derived from enzyme kinetics or from competition with a known ligand.

Chain of activated ERK2 (P28482 whole entry): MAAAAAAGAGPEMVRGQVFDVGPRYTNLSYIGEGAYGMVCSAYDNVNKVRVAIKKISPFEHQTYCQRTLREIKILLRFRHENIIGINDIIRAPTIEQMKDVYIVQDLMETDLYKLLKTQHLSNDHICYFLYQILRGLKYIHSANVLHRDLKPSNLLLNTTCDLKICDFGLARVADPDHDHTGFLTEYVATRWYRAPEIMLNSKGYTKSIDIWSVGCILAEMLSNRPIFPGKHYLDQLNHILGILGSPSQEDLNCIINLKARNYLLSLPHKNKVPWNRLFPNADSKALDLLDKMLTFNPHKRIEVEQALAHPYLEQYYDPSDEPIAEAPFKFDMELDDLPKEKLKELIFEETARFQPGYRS

The assay concerns the target activated ERK2 (Homo sapiens, UniProt P28482). Kind of assay: ERK inhibition assay (spectrophotometric coupled-enzyme assay). The assay is classed as biochemical. The note with it: activated ERK2 10 nM, 65 μM ATP, 200 μM erktide peptide, 30° C., pH 7.5; read-out: ERK2 Inhibitory Activity (Ki class).
Turning to `COc1ccccc1CNC(=O)c1cc(-c2[nH]ncc2-c2cccc(F)c2)c[nH]1` [II-A-63], the Ki is under 1000 nM.

As for `O=C(NCc1ccncc1)c1cc(-c2[nH]ncc2-c2cccc(F)c2)c[nH]1` [II-A-80], the inhibition constant Ki is under 1000 nM.

As for `O=C(NCc1ccccc1)c1cc(-c2[nH]ncc2-c2cccc(Cl)c2F)c[nH]1` [II-A-82], the Ki was under 1000 nM.

As for `O=C(NCc1ccccc1)c1cc(-c2[nH]ncc2-c2ccc(F)c(F)c2)c[nH]1` [II-A-85], the Ki was under 1000 nM.

On to `O=C(NCc1ccccc1)c1cc(-c2[nH]ncc2-c2cccc(F)c2F)c[nH]1` [II-A-103], for which the Ki is under 1000 nM.

Regarding `O=C(c1cc(-c2[nH]ncc2-c2ccccc2)c[nH]1)N1CCCC1` [II-A-134], the Ki was 1000 to 5000 nM.

`COc1cccc(-c2cn[nH]c2-c2c[nH]c(C(=O)N3CCCC3)c2)c1` [II-A-144]: the Ki is 1000 to 5000 nM.

For the molecule `COc1cccc(-c2cn[nH]c2-c2c[nH]c(C(=O)NCc3cccnc3)c2)c1` [II-A-145], the Ki lay in the range of 1000 to 5000 nM.

For the molecule `COc1cccc(-c2cn[nH]c2-c2c[nH]c(C(=O)NCc3ccco3)c2)c1` [II-A-147], the Ki fell in the range of 1000 to 5000 nM.

For the molecule `O=C(NCc1ccco1)c1cc(-c2[nH]ncc2-c2ccccc2)c[nH]1` [II-A-149], the Ki fell in the range of 1000 to 5000 nM.

As for `O=C(c1cc(-c2[nH]ncc2-c2ccccc2)c[nH]1)N1CCOCC1` [II-A-150], the inhibition constant (Ki) was 1000 to 5000 nM.

On to `O=C(NCc1cccnc1)c1cc(-c2[nH]ncc2-c2ccccc2)c[nH]1` [II-A-153], for which the Ki lay within 1000 to 5000 nM.

With `COc1cccc(-c2cn[nH]c2-c2c[nH]c(C(=O)N(C)C)c2)c1` [II-A-154], the Ki fell in the range of 1000 to 5000 nM.

`CC(C)NC(=O)c1cc(-c2[nH]ncc2-c2ccccc2)c[nH]1` [II-A-158]: the Ki lay within 1000 to 5000 nM.

For the molecule `COc1cccc(-c2cn[nH]c2-c2c[nH]c(C(=O)N3CCC(C)CC3)c2)c1` [II-A-163], the Ki was over 5000 nM.
